Broadly, the Cmax is the highest concentration seen after dosing. Usually EC50 stands for the midpoint of the concentration-response curve. The low end stands for a more potent agent, the high end for a less potent agent.

The source made the active and inactive calls. The rule behind the calls is not given here.

From ChEMBL document CHEMBL5316293, “Novel Small-Molecule PD-L1 Inhibitor Induces PD-L1 Internalization and Optimizes the Immune Microenvironment” (J Med Chem, 2023) come the findings set out here.

A short description of data set [1]: Antitumor activity against humanized mouse LLC-hPD-L1 cells implanted in hPD-1 knockin C57BL/6 mouse assessed as tumor growth inhibition at 10 mg/kg, ip administered for 12 days starting from day 7 post tumor implantation and measured every 2 days relative to control. It counts as functional. The note with it: LLC-hPD-L1, 288 h, time 12 day, read-out: TGI.
Data set [2] has as its system MC38-hPD-L1. Nature of the data set: Antitumor activity against humanized mouse MC38-hPD-L1 cells implanted in hPD-1 knockin C57BL/6 mouse assessed as reduction in Treg cells at 10 to 25 mg/kg, ip administered for 12 days starting from day 7 post tumor implantation by flow cytometry analysis. The data set is classed as functional, organism-based. The note with it: dose 10-25 mg/kg, time 12.0 day.

Data set [3] relates to MC38-hPD-L1. Nature of the data set: Antitumor activity against humanized mouse MC38-hPD-L1 cells implanted in BALB/c nude mouse assessed as reduction in tumor growth at 10 to 25 mg/kg, ip administered for 10 days starting from day 6 post tumor implantation and measured every 2 days. It counts as functional, organism-based. The following applies: dose 10-25 mg/kg, time 10.0 day.

Data set [4] has as its system LLC-hPD-L1. Nature of the data set: Antitumor activity against humanized mouse LLC-hPD-L1 cells implanted in hPD-1 knockin C57BL/6 mouse assessed as increase in CD8-positive T cells at 10 to 25 mg/kg, ip administered for 12 days starting from day 7 post tumor implantation by flow cytometry analysis. The data set is classed as functional, organism-based. The note with it: dose 10-25 mg/kg, time 12.0 day.

In data set [5] the test system is LLC-hPD-L1. Nature of the data set: Antitumor activity against humanized mouse LLC-hPD-L1 cells implanted in hPD-1 knockin C57BL/6 mouse assessed as increase in CD69-positive CD137-positive T cells at 10 to 25 mg/kg, ip administered for 12 days starting from day 7 post tumor implantation by flow cytometry analysis. The note with it: dose 10-25 mg/kg, time 12.0 day. The data set is classed as functional, organism-based. On the technique in general: In flow cytometry, cells or beads pass a laser one at a time.

Data set [6] is described as follows: Cmax in ICR mouse at 5 mg/kg, iv. It counts as ADME, organism-based. The following applies: in vivo. On the set-up: dose 5 mg/kg, route iv.
Data set [7] deals with LLC-hPD-L1. Nature of the data set: Antitumor activity against humanized mouse LLC-hPD-L1 cells implanted in hPD-1 knockin C57BL/6 mouse assessed as reduction in tumor cell proliferation by measuring reduction in Ki67 expression administered intraperitoneally for 12 days starting from day 7 post tumor implantation by immunohistochemistry analysis. The following applies: dose 10-25 mg/kg, route ip, time 12.0 day. It counts as functional, cell-based.

Data set [8] concerns MC38-hPD-L1. Nature of the data set: Antitumor activity against humanized mouse MC38-hPD-L1 cells implanted in hPD-1 knockin C57BL/6 mouse assessed as increase in CD69-positive CD137-positive T cells at 10 to 25 mg/kg, ip administered for 12 days starting from day 7 post tumor implantation by flow cytometry analysis. It counts as functional, organism-based. The note with it: dose 10-25 mg/kg, time 12.0 day.

The subject of data set [9] is MC38-hPD-L1. Nature of the data set: Antitumor activity against humanized mouse MC38-hPD-L1 cells implanted in hPD-1 knockin C57BL/6 mouse assessed as reduction in tumor cell proliferation by measuring reduction in Ki67 expression at 10 to 25 mg/kg, ip administered for 12 days starting from day 7 post tumor implantation by immunohistochemistry analysis. It counts as functional, organism-based. The note with it: dose 10-25 mg/kg, time 12.0 day.

Data set [10] relates to MC38-hPD-L1. Nature of the data set: Antitumor activity against humanized mouse MC38-hPD-L1 cells implanted in hPD-1 knockin C57BL/6 mouse assessed as increase in IFN-gamma level at 10 to 25 mg/kg, ip administered for 12 days starting from day 7 post tumor implantation by flow cytometry analysis. The data set is classed as functional, organism-based. The following applies: dose 10-25 mg/kg, time 12.0 day.

Data set [11] can be described thus: Toxicity in ICR mouse assessed as reduction in heart weight at 500 to 5000 mg/kg, po administered via gavage for 2 weeks. The note with it: in vivo, 336 h, dose 500-5000 mg/kg. It counts as organism-based.
A short description of data set [12]: Toxicity in ICR mouse assessed as reduction in liver weight at 500 to 5000 mg/kg, po administered via gavage for 2 weeks. The data set is classed as organism-based. The note with it: in vivo, 336 h, dose 500-5000 mg/kg.
Data set [13] relates to MC38-hPD-L1. Nature of the data set: Antitumor activity against humanized mouse MC38-hPD-L1 cells implanted in hPD-1 knockin C57BL/6 mouse assessed as increase in tumor cell apoptosis by measuring increase in cleaved caspase-3 level at 10 to 25 mg/kg, ip administered for 12 days starting from day 7 post tumor implantation by immunohistochemistry analysis. It counts as functional, organism-based. The following applies: dose 10-25 mg/kg, time 12.0 day.

The subject of data set [14] is MC38-hPD-L1. Nature of the data set: Antitumor activity against humanized mouse MC38-hPD-L1 cells implanted in hPD-1 knockin C57BL/6 mouse assessed as reduction in M2 macrophages at 10 to 25 mg/kg, ip administered for 12 days starting from day 7 post tumor implantation by flow cytometry analysis. The data set is classed as functional, organism-based. The following applies: dose 10-25 mg/kg, time 12.0 day.

The target in data set [15] is Programmed cell death 1 ligand 1 (Homo sapiens, UniProt Q9NZQ7). Nature of the data set: Inhibition of PD-1 Fc IgG fusion protein binding to PD-L1 in human NCI-H460 cells incubated for 6 hrs by DAPI/PD-1 anti-human IgG DyLight 488 staining based fluorescence microscopy. The data set is classed as cell-based.
Programmed cell death 1 ligand 1, sequence (Q9NZQ7 whole entry, the tested form may be a part): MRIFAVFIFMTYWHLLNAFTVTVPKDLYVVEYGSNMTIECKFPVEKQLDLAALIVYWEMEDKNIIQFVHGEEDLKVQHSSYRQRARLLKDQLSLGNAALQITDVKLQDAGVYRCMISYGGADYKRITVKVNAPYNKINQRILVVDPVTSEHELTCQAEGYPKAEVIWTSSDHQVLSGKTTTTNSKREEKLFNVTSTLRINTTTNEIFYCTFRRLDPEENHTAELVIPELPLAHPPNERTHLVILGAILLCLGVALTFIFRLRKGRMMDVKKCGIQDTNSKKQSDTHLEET
A short description of data set [16]: Toxicity in ICR mouse assessed as animal death at 5000 mg/kg, po administered via gavage for 2 weeks. The following applies: in vivo, 336 h. The data set is classed as organism-based.
Data set [17] deals with MC38-hPD-L1. Nature of the data set: Antitumor activity against humanized mouse MC38-hPD-L1 cells implanted in hPD-1 knockin C57BL/6 mouse assessed as increase in CD8-positive T cells at 10 to 25 mg/kg, ip administered for 12 days starting from day 7 post tumor implantation by flow cytometry analysis. The data set is classed as functional, organism-based. The following applies: dose 10-25 mg/kg, time 12.0 day.

Data set [18] has as its target Programmed cell death protein 1/Programmed cell death 1 ligand 1 (Homo sapiens) (UniProt Q15116+Q9NZQ7). Nature of the data set: Inhibition of PD-1/PD-L1 interaction in human NCI-H358 cells harboring high level PD-L1 expression assessed as increase in transcriptional-mediated bioluminescent signal preincubated with compound followed by washout and further cultured with Jurkat cells transfected with NFAT luciferase by bio-glo reagent based assay. The following applies: dose 50-200 nM. It counts as cell-based.

For data set [19], the system named is LLC-hPD-L1. Nature of the data set: Antitumor activity against humanized mouse LLC-hPD-L1 cells implanted in hPD-1 knockin C57BL/6 mouse assessed as reduction in M2 macrophages at 10 to 25 mg/kg, ip administered for 12 days starting from day 7 post tumor implantation by flow cytometry analysis. The note with it: dose 10-25 mg/kg, time 12.0 day. The data set is classed as functional, organism-based.

The test system of data set [20] is LLC-hPD-L1. Nature of the data set: Antitumor activity against humanized mouse LLC-hPD-L1 cells implanted in hPD-1 knockin C57BL/6 mouse assessed as increase in IFN-gamma level at 10 to 25 mg/kg, ip administered for 12 days starting from day 7 post tumor implantation by flow cytometry analysis. The data set is classed as functional, organism-based. The note with it: dose 10-25 mg/kg, time 12.0 day.

For data set [21], the system named is MC38-hPD-L1. Nature of the data set: Antitumor activity against humanized mouse MC38-hPD-L1 cells implanted in hPD-1 knockin C57BL/6 mouse assessed as reduction in MDSC cells at 10 to 25 mg/kg, ip administered for 12 days starting from day 7 post tumor implantation by flow cytometry analysis. It counts as functional, organism-based. The note with it: dose 10-25 mg/kg, time 12.0 day.

For data set [22], the system named is MC38-hPD-L1. Nature of the data set: Antitumor activity against humanized mouse MC38-hPD-L1 cells implanted in hPD-1 knockin C57BL/6 mouse assessed as increase in M1 macrophages at 10 to 25 mg/kg, ip administered for 12 days starting from day 7 post tumor implantation by flow cytometry analysis. It counts as functional, organism-based. The note with it: dose 10-25 mg/kg, time 12.0 day.

For `COc1cc2c(cc1CN[C@@H](CO)C(=O)O)C(=O)N(c1cccc(-c3ccccc3)c1C)C2=O`, the inhibition in vivo at 10 mg/kg in data set [1] came out at 57.2%. For the same compound, the result in the data set with MC38-hPD-L1 [2], in the data set on LLC-hPD-L1 [4], in the data set with LLC-hPD-L1 [5], in the data set on MC38-hPD-L1 [8], with MC38-hPD-L1 [9] and in the data set on MC38-hPD-L1 [10] was Active. For the same compound, the outcome in the data set with MC38-hPD-L1 [13], in the data set with MC38-hPD-L1 [14], in the data set on MC38-hPD-L1 [17], with LLC-hPD-L1 [19], with LLC-hPD-L1 [20] and with MC38-hPD-L1 [21] was Active. Moreover, the result in the data set with MC38-hPD-L1 [22] was Active. Moreover, in the data set with MC38-hPD-L1 [3], the result was inactive. Further, in [6], the concentration peaked (Cmax) at 6.29 µg/mL. The Activity result was “Dose-Dependent Effect” in the data set on LLC-hPD-L1 [7], “Non-Toxic” in data set [11], “Non-Toxic” in data set [12] and “Non-Toxic” in data set [16]. This compound returned an EC50 in [15] of 0.121 µM. In addition, the inhibition entry in [18] is “Dose-Dependent Effect”.
